pIC50: −log10 of the molar value. Activity calls are given as the source filed them. No cut-off for these calls is given here.
Experiments:
[1] = target: Tyrosine-protein kinase Mer (Homo sapiens, UniProt Q12866); experiment: Inhibition of human wild type MER using PolyEY as substrate preincubated for 2 hrs followed by ATP addition and measured every 2 mins for […] by spectrophotometric analysis
[2] = target: Tyrosine-protein kinase CSK (Homo sapiens, UniProt P41240); experiment: Inhibition of human wild type CSK using PolyEY as substrate preincubated for 2 hrs followed by ATP addition and measured every 2 mins for […] by spectrophotometric analysis
[3] = target: Fibroblast growth factor receptor 3 (Homo sapiens, UniProt P22607); experiment: Inhibition of human wild type FGFR3 using PolyEY as substrate preincubated for 2 hrs followed by ATP addition and measured every 2 mins for […] by spectrophotometric analysis
[4] = target: LIM domain kinase 1 (Homo sapiens, UniProt P53667); experiment: Inhibition of human wild type LIMK1 using CFL2 as substrate preincubated for 2 hrs followed by ATP addition and measured every 2 mins for […] by spectrophotometric analysis
[5] = target: Dual specificity tyrosine-phosphorylation-regulated kinase 3 (Homo sapiens, UniProt O43781); experiment: Inhibition of human wild type DYRK3 using RBER-IRStide as substrate preincubated for 2 hrs followed by ATP addition and measured every 2 mins for […] by spectrophotometric analysis
[6] = target: Vascular endothelial growth factor receptor 3 (Homo sapiens, UniProt P35916); experiment: Inhibition of human wild type FLT4 using PolyEY as substrate preincubated for 2 hrs followed by ATP addition and measured every 2 mins for […] by spectrophotometric analysis
[7] = target: Mitogen-activated protein kinase kinase kinase kinase 2 (Homo sapiens, UniProt Q12851); experiment: Inhibition of human wild type GCK using Chocktide-PKC(19t o 31) as substrate preincubated for 2 hrs followed by ATP addition and measured every 2 mins for […] by spectrophotometric analysis
[8] = target: Mitogen-activated protein kinase 9 (Homo sapiens, UniProt P45984); experiment: Inhibition of human wild type JNK2alpha2 using ATF2 as substrate preincubated for 2 hrs followed by ATP addition and measured every 2 mins for […] by spectrophotometric analysis
[9] = target: Hepatocyte growth factor receptor (Homo sapiens, UniProt P08581); experiment: Inhibition of human wild type MET using Poly(Ala,Glu,Lys,Tyr)6:2:5:1 as substrate preincubated for 2 hrs followed by ATP addition and measured every 2 mins for […] by spectrophotometric analysis
Chain of Hepatocyte growth factor receptor (P08581 whole entry): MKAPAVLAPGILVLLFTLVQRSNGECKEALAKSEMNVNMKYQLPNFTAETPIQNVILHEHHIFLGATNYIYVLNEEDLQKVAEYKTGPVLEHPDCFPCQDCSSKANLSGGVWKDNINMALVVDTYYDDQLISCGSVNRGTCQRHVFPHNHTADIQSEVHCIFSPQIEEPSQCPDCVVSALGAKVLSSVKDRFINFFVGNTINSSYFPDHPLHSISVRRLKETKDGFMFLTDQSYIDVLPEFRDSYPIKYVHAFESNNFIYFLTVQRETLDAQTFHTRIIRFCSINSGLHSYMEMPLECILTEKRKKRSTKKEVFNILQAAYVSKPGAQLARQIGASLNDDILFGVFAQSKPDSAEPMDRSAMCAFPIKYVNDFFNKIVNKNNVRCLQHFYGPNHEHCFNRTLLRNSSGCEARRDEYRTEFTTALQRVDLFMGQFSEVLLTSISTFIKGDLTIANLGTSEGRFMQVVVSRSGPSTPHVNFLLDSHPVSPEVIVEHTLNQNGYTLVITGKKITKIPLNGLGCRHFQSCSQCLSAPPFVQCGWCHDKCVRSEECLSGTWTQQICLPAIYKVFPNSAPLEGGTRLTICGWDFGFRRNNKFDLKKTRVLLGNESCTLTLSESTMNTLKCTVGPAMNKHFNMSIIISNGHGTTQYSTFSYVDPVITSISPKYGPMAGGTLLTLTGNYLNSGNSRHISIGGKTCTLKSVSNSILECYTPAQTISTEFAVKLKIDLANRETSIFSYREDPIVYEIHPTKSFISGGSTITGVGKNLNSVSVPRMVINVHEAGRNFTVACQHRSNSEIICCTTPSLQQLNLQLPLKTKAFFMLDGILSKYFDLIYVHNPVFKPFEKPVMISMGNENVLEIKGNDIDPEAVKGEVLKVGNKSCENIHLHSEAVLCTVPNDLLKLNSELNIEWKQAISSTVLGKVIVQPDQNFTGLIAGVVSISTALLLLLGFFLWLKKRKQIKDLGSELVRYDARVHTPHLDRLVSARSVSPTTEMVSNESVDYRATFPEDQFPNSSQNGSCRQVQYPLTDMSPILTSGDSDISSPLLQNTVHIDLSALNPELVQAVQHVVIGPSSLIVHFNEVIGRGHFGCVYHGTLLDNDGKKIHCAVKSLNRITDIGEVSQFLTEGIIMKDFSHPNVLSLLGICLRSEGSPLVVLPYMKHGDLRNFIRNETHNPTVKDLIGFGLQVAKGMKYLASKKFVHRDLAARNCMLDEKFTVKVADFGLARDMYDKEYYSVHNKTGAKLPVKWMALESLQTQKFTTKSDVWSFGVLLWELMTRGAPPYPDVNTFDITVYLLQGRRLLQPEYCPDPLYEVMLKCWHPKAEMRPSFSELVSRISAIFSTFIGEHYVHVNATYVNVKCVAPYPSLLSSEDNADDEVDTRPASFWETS

[10] = target: Mitogen-activated protein kinase 11 (Homo sapiens, UniProt Q15759); experiment: Inhibition of human wild type p38 beta using ATF2 as substrate preincubated for 2 hrs followed by ATP addition and measured every 2 mins for […] by spectrophotometric analysis
Chain of Mitogen-activated protein kinase 11 (Q15759 whole entry): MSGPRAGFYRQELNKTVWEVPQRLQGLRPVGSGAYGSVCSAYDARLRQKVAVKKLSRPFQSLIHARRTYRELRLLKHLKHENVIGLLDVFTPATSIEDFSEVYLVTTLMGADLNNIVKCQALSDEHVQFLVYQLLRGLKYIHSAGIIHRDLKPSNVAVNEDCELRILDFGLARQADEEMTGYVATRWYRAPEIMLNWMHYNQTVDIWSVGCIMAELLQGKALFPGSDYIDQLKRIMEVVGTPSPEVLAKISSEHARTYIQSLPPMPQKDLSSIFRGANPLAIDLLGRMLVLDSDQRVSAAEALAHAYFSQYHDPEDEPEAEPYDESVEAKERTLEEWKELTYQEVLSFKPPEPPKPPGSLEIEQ

[11] = target: Macrophage-stimulating protein receptor (Homo sapiens, UniProt Q04912); experiment: Inhibition of human wild type RON using PolyEY as substrate preincubated for 2 hrs followed by ATP addition and measured every 2 mins for […] by spectrophotometric analysis
Chain of Macrophage-stimulating protein receptor (Q04912 25-304 limits assumed): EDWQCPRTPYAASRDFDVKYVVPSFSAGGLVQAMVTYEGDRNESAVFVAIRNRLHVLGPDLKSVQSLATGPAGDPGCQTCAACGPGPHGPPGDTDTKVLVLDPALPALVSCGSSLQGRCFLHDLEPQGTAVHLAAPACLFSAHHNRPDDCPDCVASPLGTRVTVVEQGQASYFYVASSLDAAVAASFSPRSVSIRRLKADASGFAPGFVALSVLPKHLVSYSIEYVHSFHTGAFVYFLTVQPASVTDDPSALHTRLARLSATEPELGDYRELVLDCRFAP
Chain of Macrophage-stimulating protein receptor (Q04912 310-1400 limits assumed): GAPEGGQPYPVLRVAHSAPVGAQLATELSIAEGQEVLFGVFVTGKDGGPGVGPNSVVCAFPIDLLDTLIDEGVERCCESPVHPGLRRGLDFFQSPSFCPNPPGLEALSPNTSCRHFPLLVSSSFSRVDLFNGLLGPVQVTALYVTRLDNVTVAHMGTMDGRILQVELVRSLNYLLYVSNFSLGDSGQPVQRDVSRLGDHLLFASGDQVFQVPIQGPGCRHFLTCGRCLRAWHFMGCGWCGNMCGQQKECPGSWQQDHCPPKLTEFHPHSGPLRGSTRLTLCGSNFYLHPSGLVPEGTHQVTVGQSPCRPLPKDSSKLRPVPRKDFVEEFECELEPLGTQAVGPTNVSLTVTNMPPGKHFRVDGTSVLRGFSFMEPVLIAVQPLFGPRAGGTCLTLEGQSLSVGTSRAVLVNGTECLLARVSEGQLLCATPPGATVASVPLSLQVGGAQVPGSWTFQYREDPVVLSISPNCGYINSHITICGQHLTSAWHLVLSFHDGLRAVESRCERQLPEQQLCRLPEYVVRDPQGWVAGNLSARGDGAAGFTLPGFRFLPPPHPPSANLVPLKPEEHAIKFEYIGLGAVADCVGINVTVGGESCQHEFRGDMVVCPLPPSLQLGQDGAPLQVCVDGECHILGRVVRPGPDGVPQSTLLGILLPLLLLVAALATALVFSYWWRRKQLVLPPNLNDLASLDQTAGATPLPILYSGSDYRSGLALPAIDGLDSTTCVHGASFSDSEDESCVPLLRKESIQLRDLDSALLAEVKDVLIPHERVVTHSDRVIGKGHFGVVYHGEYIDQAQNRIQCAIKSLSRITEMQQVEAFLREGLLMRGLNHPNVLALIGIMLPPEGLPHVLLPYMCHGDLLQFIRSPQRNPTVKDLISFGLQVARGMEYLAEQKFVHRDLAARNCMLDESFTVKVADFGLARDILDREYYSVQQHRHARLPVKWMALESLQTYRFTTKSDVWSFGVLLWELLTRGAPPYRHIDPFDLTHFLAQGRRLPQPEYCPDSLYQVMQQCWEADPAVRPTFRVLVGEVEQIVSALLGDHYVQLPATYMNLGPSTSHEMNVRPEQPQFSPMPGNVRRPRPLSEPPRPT

[12] = target: RAC-alpha serine/threonine-protein kinase (Homo sapiens, UniProt P31749); experiment: Inhibition of human wild type AKT1 using RBER-GSK3([…] to […]) as substrate preincubated for 2 hrs followed by ATP addition and measured every 2 mins for […] by spectrophotometric analysis
[13] = target: Mitogen-activated protein kinase kinase kinase 5 (Homo sapiens, UniProt Q99683); experiment: Inhibition of human wild type ASK1 using RBER-GSK3([…] to […]) as substrate preincubated for 2 hrs followed by ATP addition and measured every 2 mins for […] by spectrophotometric analysis
[14] = target: Aurora kinase A (Homo sapiens, UniProt O14965); experiment: Inhibition of human wild type AuroraA using bio-4xCHKT as substrate preincubated for 2 hrs followed by ATP addition and measured every 2 mins for […] by spectrophotometric analysis
[15] = target: Mitogen-activated protein kinase kinase kinase 8 (Homo sapiens, UniProt P41279); experiment: Inhibition of human wild type COT1 using RBER-CHKtide as substrate preincubated for 2 hrs followed by ATP addition and measured every 2 mins for […] by spectrophotometric analysis
[16] = target: Receptor tyrosine-protein kinase erbB-2 (Homo sapiens, UniProt P04626); experiment: Inhibition of human wild type HER2 using PolyEY as substrate preincubated for 2 hrs followed by ATP addition and measured every 2 mins for […] by spectrophotometric analysis
Chain of Receptor tyrosine-protein kinase erbB-2 (P04626 whole entry): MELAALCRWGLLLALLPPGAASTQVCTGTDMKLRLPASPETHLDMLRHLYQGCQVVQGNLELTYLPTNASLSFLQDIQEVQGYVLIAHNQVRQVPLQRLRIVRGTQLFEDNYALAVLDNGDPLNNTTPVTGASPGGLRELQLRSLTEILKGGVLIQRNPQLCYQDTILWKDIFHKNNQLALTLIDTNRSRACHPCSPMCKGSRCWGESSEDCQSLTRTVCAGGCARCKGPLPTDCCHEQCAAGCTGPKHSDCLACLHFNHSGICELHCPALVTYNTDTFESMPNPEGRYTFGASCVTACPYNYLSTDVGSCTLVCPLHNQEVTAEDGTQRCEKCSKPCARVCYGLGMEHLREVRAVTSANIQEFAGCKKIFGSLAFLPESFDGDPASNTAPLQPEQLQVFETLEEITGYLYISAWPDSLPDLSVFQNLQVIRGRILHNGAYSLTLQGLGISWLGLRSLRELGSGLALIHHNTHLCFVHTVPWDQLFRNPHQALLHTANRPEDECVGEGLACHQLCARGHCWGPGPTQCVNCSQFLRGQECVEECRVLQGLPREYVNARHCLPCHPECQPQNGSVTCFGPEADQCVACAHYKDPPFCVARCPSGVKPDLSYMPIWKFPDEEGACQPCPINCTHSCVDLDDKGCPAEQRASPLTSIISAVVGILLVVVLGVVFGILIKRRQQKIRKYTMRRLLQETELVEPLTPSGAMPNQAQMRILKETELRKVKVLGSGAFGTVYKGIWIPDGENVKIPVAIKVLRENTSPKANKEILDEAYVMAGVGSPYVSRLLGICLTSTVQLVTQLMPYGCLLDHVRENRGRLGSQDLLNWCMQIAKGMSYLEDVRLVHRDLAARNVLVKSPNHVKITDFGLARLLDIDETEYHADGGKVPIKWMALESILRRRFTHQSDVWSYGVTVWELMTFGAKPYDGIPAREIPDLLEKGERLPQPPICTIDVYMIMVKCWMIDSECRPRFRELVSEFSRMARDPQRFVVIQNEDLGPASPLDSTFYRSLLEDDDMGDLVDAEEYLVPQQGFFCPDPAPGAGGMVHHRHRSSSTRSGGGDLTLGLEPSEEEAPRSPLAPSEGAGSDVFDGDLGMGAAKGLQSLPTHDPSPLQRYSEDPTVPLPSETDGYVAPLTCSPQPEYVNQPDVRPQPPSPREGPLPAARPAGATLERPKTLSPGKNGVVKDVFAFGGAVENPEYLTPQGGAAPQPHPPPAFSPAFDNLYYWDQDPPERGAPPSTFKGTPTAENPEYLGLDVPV

[17] = target: Insulin-like growth factor 1 receptor (Homo sapiens, UniProt P08069); experiment: Inhibition of human wild type IGF1R using PolyEY as substrate preincubated for 2 hrs followed by ATP addition and measured every 2 mins for […] by spectrophotometric analysis
[18] = target: Mitogen-activated protein kinase 10 (Homo sapiens, UniProt P53779); experiment: Inhibition of human wild type JNK3 using ATF2 as substrate preincubated for 2 hrs followed by ATP addition and measured every 2 mins for […] by spectrophotometric analysis
[19] = target: Serine/threonine-protein kinase MRCK alpha (Homo sapiens, UniProt Q5VT25); experiment: Inhibition of human wild type MRCK alpha using RB-S6P as substrate preincubated for 2 hrs followed by ATP addition and measured every 2 mins for […] by spectrophotometric analysis
[20] = target: Serine/threonine-protein kinase Nek1 (Homo sapiens, UniProt Q96PY6); experiment: Inhibition of human wild type NEK1 using RBER-CHKtide as substrate preincubated for 2 hrs followed by ATP addition and measured every 2 mins for […] by spectrophotometric analysis
[21] = target: Lymphokine-activated killer T-cell-originated protein kinase (Homo sapiens, UniProt Q96KB5); experiment: Inhibition of human wild type PBK using Histon H1 as substrate preincubated for 2 hrs followed by ATP addition and measured every 2 mins for […] by spectrophotometric analysis
[22] = target: Serine/threonine-protein kinase pim-1 (Homo sapiens, UniProt P11309); experiment: Inhibition of human wild type PIM1 using RBER-GSK3(14to 27) as substrate preincubated for 2 hrs followed by ATP addition and measured every 2 mins for […] by spectrophotometric analysis
[23] = target: Protein kinase C gamma type (Homo sapiens, UniProt P05129); experiment: Inhibition of human wild type PKC gamma using 3xChocktide-PKC(19to 31) as substrate preincubated for 2 hrs followed by ATP addition and measured every 2 mins for […] by spectrophotometric analysis
[24] = target: Serine/threonine-protein kinase 25 (Homo sapiens, UniProt O00506); experiment: Inhibition of human wild type STK25 using Casein as substrate preincubated for 2 hrs followed by ATP addition and measured every 2 mins for […] by spectrophotometric analysis
[25] = target: Wee1-like protein kinase (Homo sapiens, UniProt P30291); experiment: Inhibition of human wild type WEE1 using Poly(Ala,Glu,Lys,Tyr)6:2:5:1 as substrate preincubated for 2 hrs followed by ATP addition and measured every 2 mins for […] by spectrophotometric analysis
[26] = test system: BaF3; experiment: Antitumor activity against mouse BaF3 cells harbouring BCR-ABL1 T315I mutant xenografted in Balb/c mouse model assessed as reduction in leukemia cell burden in spleen at 100 mg/kg, po administered twice daily; format: functional, organism-based
[27] = test system: BaF3; experiment: In vivo inhibition of BCR-ABL1 T315I signalling in mouse BaF3 cells harbouring BCR-ABL1 T315I mutant xenografted in Balb/c mouse model at 100 mg/kg, po administered as single dose measured after 8 hrs by flow cytometry analysis; format: functional, organism-based
[28] = test system: BaF3; experiment: cells; conditions: Mus musculus, BaF3, 72 h

pIC50 [1]: 8.12
pIC50 [2]: 7.60
pIC50 [3]: 8.00
pIC50 [4]: 7.21
pIC50 [5]: 6.15
pIC50 [6]: 6.62
pIC50 [7]: 6.64
pIC50 [8]: 6.62
pIC50 [9]: 6.60
pIC50 [10]: 6.10
pIC50 [11]: 6.52
pIC50 [12]: < 6.00
pIC50 [13]: < 6.00
pIC50 [14]: < 5.30
pIC50 [15]: < 6.00
pIC50 [16]: < 6.00
pIC50 [17]: < 6.00
pIC50 [18]: < 6.00
pIC50 [19]: < 6.00
pIC50 [20]: < 6.00
pIC50 [22]: < 6.00
pIC50 [23]: < 6.00
pIC50 [24]: < 6.00
pIC50 [25]: < 6.00
pIC50 [28]: 8.22
Compound: CNC(=O)c1cc(Oc2ccc(NC(=O)Nc3cc(C(C)(C)C)nn3-c3ccc4ncccc4c3)c(F)c2)ccn1 [REBASTINIB]
pIC50 [21]: < 6.00
Activity [26]: Active
inhibition [27]: Active

From ChEMBL document CHEMBL5678804 (Cancer Cell, 2011)
